The target of one assay is T1, hTLR2 (Homo sapiens, UniProt O60603).
T1 construct: host or cells: HEK 293 Blue Cells
Put plainly: TLR2-transfected HEK 293 Blue cells, secreted alkaline phosphatase (NF-κB activity). The note with it: 48 hours, FIGS. 3, 6, 7. Type of assay: cell-based. An excerpt:
(§1) To test if the 35 amino acid N-terminus of annexin II, which distinguishes annexin II from other annexins, contains adjuvant activity, we pulsed bone marrow-derived dendritic cells (BMDC) with gp100+/−A2OVA, fusion peptide containing this 35 amino acid fragment. […] We then tested whether this fusion peptide enhanced adjuvant activity over that of addition of OVA and full length annexin II protein. BMDC were pulsed with A2OVA and we measured the OVA-specific OT-1 CD8 T cell response. […] To further investigate the ability to derive a novel single antigen fusion peptide, we constructed OVA fusion peptides in which an OVA peptide (SEQ ID NO:9) was fused to either an annexin II N-terminal fragment or a scrambled 35 amino acid peptide to produce SEQ ID NO:30 and SEQ ID NO:29, respectively. Peptides were pulsed on TLR2 transfected cells and alkaline phosphatase activity was used to determine NF-κB activity (FIG. 3).
HEK 293 Blue Cells (Invivogen, San Diego, Calif.) stably transfected with hTLR2 were pulsed with annexin II-OVA fusion protein (A2OVA, SEQ ID NO:32) at equal concentration as annexin II monomer (A2 Peptide, SEQ ID NO:28). Scrambled annexin II N-terminus polypeptide (SEQ ID NO:29, Scrambled) and an annexin II fragment (SEQ ID NO:30, Minus p11) were used as controls. Cells were incubated for 48 hours. Following incubation, supernatant was added to Quanti-Blue (Invivogen, San Diego, Calif.) for secreted alkaline phosphatase detection.
(§2) TLR2-transfected HEK 293 Blue Cells and TLR4-transfected HEK 293 Blue Cells (Invivogen, San Diego, Calif.) were pulsed with the N-terminal 15 amino acid annexin II fragment peptide (15aa Peptide, SEQ ID NO:5) at different concentrations. Cells were incubated for 48 hours. Following incubation, supernatant was added to Quanti-Blue (Invivogen, San Diego, Calif.) for secreted alkaline phosphatase detection.
TLR2-transfected HEK 293 Blue Cells and TLR4-transfected HEK 293 Blue Cells (Invivogen, San Diego, Calif.) were pulsed with the N-terminal 15 amino acid annexin II fragment peptide (15aa Peptide, SEQ ID NO:5) or one of the annexin II variants shown in Table 1. Cells were incubated for 48 hours. Following incubation, supernatant was added to Quanti-Blue (Invivogen, San Diego, Calif.) for secreted alkaline phosphatase detection.

The subject of another assay is breast tumor. Put plainly: Breast-tumor-bearing mice vaccinated intraperitoneally, tumor growth and survival. Type of assay: in vivo, BALB/c mice. The note with it: 10 consecutive days intraperitoneally; for survival of tumor bearing mice: breast tumor bearing BALB/c mice, compared to saline or scrambled control, FIG. 5. How it is done: (§3) Next, we investigated the use of the A2OVA in vivo. A2OVA peptide (SEQ ID NO:32) was given to non-tumor bearing mice as described in FIG. 4A to see if they would elicit an OVA specific T cell response. […] To determine if the 35 amino acid annexin II fragment can extend survival in tumor bearing animals in an antigen non-specific manner, we used breast tumor bearing BALB/c mice, which lack the MHC haplotype to present SIINFEKL. Mice were treated with A2OVA peptide as summarized in FIG. 5A and followed for survival.

For assay [1], the system named is bone marrow derived dendritic cells. As to the kind of experiment: BMDCs (wild-type, TLR2-/-, TLR4-/-, MyD88-/-) pulsed with peptide, CD80/CD86 by flow cytometry. The class given is cell-based, mice. The note with it: 50 μg peptide, 48 hours, TLR2, TLR4 and MyD88 knockout BMDCs, CD11c+MHCII+ gate; for CD80 co-stimulatory molecule expression (MFI): FIG. 11; for CD86 co-stimulatory molecule expression (MFI): FIG. 12. How it is done: To further characterize the activity of the A-6 variant (SEQ ID NO:17), BMDCs from wild-type, TLR2 knockout, TLR4 knockout, and MyD88 knockout mice were pulsed with the peptide and analyzed for co-stimulatory molecules CD80 (FIG. 11) and CD86 (FIG. 12).
BDMCs (wild-type, TLR2^−/−, TLR4^−/−, and MyD88^−/−) were cultured with 20 ng/mL GM-CSF for six days, then pulsed with 50 ng Pam3CSK4, 50 ng LPS, 50 μg of the N-terminal 15 amino acid annexin II fragment peptide (SEQ ID NO:5, 15aa A2p), or 50 μg of annexin II variant A-6 (SEQ ID NO:17, 15aa A2p6 AL). After 48 hours, cells were stained for CD11c, MHC II, CD80, and CD86 and analyzed by flow cytometry. MFI shown is from a live cell, CD11c^+MHCII^+ gate.
(A flow cytometer gives signals particle by particle.)

The subject of assay [2] is OVA specific CD8+ T cell response. As to the kind of experiment: Vaccination of BL/6 mice, CD8+SIINFEKL+ expansion in whole blood on Day 8. The class given is in vivo. The note with it: four consecutive days, hind leg. As for the experimental part:
as §3
BL/6 mice also were vaccinated for four consecutive days in the hind leg with ovalbumin (OVA), ovalbumin+ and 50 μg of the N-terminal 15 amino acid annexin II fragment peptide (SEQ ID NO:5, 15aa), or ovalbumin+50 μg the annexin II variant A-6 (Table 1, SEQ ID NO:17, 15aaP6). On Day 8, mice were bled and whole blood was analyzed for CD8^+SIINFEKL^+ expansion.

Another assay has as its target T2, TLR4 (Homo sapiens, UniProt O00206).
T2 construct: host or cells: HEK 293 Blue Cells
Put plainly: TLR4-transfected HEK 293 Blue cells, secreted alkaline phosphatase (NF-κB activity). Type of assay: cell-based. The note with it: 48 hours, FIGS. 6, 7.
Excerpt: To better characterize the 35 amino acid N-terminus as an adjuvant, we serially removed five amino acids from the C-terminus end of the N-terminal fragment to produce annexin II variants SEQ ID NO:2, SEQ ID NO:3, SEQ ID NO:4, SEQ ID NO:5, and SEQ ID NO:6. We tested the resulting peptides for NF-κB activity. […] To test the ability of the 15 amino acid annexin II fragment (SEQ ID NO:5) to stimulate an immune response, and to determine whether its ability to do so is mediated through TLR2, wild-type and TLR-2 knockout mice were given OVA±annexin II or OVA±the 15 amino acid N-terminal annexin II fragment (SEQ ID NO:5).
as §2
TLR2-transfected HEK 293 Blue Cells and TLR4-transfected HEK 293 Blue Cells (Invivogen, San Diego, Calif.) were pulsed with the N-terminal 15 amino acid annexin II fragment peptide (15aa Peptide, SEQ ID NO:5) or one of the annexin II variants shown in Table 1. Cells were incubated for 48 hours. […]

The subject of assay [3] is bone marrow derived dendritic cells. Put plainly: BMDCs (wild-type, TLR4-/-, MyD88-/-) pulsed with peptide, TNF in supernatant by bead array. The class given is cell-based, mice. The note with it: 50 μg peptide, 48 hours, TLR4 knockout and MyD88 knockout BMDCs, FIG. 10. As for the experimental part:
To determine the 15 amino acid N-terminal annexin II fragment's activity on dendritic cells, BMDCs were derived for wild-type, TLR4 knockout, and MyD88 knockout mice. The various BMDCs and pulsed with the 15 amino acid N-terminal annexin II fragment (SEQ ID NO:5).
BMDCs (wild-type, TLR4^−/−, and MyD88^−/−) were cultured with 20 ng/mL GM-CSF for six days, then pulsed with 50 ng Pam3CSK4, 50 ng LPS, or 50 μg of the N-terminal 15 amino acid annexin II fragment peptide (SEQ ID NO:5, A2-15aa). After 48 hours, cell culture supernatant was assayed for TNF by bead array.

Assay [4] concerns OVA-specific OT-1 CD8 T cell response. As to the kind of experiment: BMDCs pulsed with OVA peptide/fusion, co-cultured with OT-I CD8+ T cells, IFN-γ by bead array. Type of assay: cell-based, mice. Conditions: BMDC pulsed with A2OVA versus A2 monomer + OVA as separate agents; FIG. 2.
Excerpt: as §1
BMDCs were pulsed with OVA248-274 (SEQ ID NO:31), annexin II (A2 monomer, SEQ ID NO:28), a combination of OVA248-274 and annexin II (A2 monomer+OVA), or annexin II-OVA fusion protein (A2OVA, SEQ ID NO:32), and incubated for 24 hours. Purified OT-I CD8^+ T cells were added and co-cultured for an additional 48 hours. IFN-γ in the tissue culture supernatant was quantified by bead array.

For assay [5], the system named is gp100-specific CD8 T cell response. As to the kind of experiment: BMDCs pulsed with hgp100 25-33 plus peptide, co-cultured with Pmel CD8+ T cells, IFN-γ by bead array. The note with it: BMDC pulsed with gp100 +/- A2OVA; equal concentration and equal molecular ratio compared to full-length annexin II; FIG. 1. Type of assay: cell-based, C57BL/6 mice.
Excerpt: as §1
Bone marrow derived dendritic cells (BMDCs) were differentiated from C57BL/6 mice and pulsed with hgp10025-33 (SEQ ID NO: 27) with annexin II-OVA fusion protein (SEQ ID NO:32) at equal concentration (*) or equal molecular ratio (**) as A2 monomer (SEQ ID NO:28) and incubated for 24 hours. Annexin A2 monomer was used as a positive control. […] IFN-γ in the tissue culture supernatant was quantified by bead array.

The text below walks through data of US10206986B2, “Annexin II variant compositions and methods” (REGENTS OF THE UNIVERSITY OF MINNESOTA, priority 2013, dated 2019).

T1 sequence (O60603 21-784): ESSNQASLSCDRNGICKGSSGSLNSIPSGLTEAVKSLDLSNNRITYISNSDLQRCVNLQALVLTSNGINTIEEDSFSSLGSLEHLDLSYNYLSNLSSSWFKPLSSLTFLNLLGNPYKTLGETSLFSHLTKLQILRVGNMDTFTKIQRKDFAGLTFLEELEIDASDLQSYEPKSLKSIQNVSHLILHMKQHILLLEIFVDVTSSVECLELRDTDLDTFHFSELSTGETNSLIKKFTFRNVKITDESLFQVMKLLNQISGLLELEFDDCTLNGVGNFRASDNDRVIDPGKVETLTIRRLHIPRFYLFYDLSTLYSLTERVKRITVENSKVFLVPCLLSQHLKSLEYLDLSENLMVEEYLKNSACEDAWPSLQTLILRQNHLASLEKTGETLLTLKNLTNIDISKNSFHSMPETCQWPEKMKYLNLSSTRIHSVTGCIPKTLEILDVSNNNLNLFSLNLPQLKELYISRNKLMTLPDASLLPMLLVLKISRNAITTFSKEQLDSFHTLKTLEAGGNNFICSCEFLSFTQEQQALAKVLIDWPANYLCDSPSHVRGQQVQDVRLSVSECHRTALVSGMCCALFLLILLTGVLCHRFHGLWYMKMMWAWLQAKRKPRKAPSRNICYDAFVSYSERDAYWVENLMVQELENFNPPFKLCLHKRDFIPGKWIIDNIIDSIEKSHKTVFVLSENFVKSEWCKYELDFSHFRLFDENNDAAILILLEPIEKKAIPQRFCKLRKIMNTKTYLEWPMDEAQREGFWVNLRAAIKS
T2 sequence (O00206 24-839, species assumed): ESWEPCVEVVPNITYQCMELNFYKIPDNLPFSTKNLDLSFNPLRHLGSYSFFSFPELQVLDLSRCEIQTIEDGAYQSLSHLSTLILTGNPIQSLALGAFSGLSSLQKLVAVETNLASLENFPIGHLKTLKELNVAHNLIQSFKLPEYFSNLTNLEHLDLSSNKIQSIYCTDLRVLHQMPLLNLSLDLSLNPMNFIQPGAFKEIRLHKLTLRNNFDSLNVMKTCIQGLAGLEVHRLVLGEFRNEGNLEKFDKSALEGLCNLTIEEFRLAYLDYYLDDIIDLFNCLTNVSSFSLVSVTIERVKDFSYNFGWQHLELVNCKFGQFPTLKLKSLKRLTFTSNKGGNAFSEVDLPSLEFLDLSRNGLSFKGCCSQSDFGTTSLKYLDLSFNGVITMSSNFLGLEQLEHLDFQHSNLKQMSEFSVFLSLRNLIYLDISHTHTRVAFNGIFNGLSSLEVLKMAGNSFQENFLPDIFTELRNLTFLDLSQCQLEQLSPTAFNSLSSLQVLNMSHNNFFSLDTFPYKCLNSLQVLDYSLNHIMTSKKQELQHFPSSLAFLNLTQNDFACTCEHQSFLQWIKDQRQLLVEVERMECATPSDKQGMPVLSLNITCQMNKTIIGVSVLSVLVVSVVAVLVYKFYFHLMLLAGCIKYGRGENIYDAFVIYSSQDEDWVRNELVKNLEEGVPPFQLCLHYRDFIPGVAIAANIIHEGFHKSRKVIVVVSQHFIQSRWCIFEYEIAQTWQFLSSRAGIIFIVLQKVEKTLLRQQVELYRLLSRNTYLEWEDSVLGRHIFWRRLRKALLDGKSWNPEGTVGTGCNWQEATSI
T2 sequence (Q9Y6Y9 17-160 partner limits assumed, species assumed): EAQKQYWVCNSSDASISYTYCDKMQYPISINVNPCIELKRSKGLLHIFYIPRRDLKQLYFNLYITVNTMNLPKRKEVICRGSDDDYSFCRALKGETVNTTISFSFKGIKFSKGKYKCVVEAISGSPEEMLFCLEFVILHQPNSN

As to “DHSTPPSAYGSVKPYTNFDAEEQLESIINFEKLTEWT (DHSTPPSAYGSVKPYTNFDAEEQLESIINFEKLTEWT; annexin II peptide fragment minus p11) [SEQ ID NO:30, reference compound]”, the “NF-κB activity through TLR2 (alkaline phosphatase)” value (from here on “NF-κB activity through TLR2”) with hTLR2 is “did not elicit a response”. Besides, in the assay on breast tumor, the “survival of tumor bearing mice” value is listed as “conferred no survival benefit”.

As for “STVHEALCKL SLEGD (STVHEALCKLSLEGD; annexin II variant polypeptide) [A-6, alanine for isoleucine substitution at position six of a 15 amino acid annexin II fragment]”, the “NF-κB activity through TLR2” value with hTLR2 was “enhanced TLR2 and TLR4 signaling”. For the same sequence, in assay [1], the “CD80 co-stimulatory molecule expression (MFI)” value was “increased CD80 and CD86 co-stimulatory molecule expression in a TLR4- and MyD88-dependent manner”; the “CD86 co-stimulatory molecule expression (MFI)” value is “increased CD80 and CD86 co-stimulatory molecule expression in a TLR4- and MyD88-dependent manner”. Also, the “OVA specific T cell priming in vivo (CD8+SIINFEKL+ expansion)” value in assay [2] (BL/6 mice, ovalbumin + 50 μg peptide, Day 8, versus 15aa fragment, FIG. 9) is listed as “enhanced OVA specific T cell priming in vivo”. Also, the “NF-κB activity through TLR4 (alkaline phosphatase)” value with TLR4 is “enhanced TLR2 and TLR4 signaling”.

As to “STVHEILCKL SLEGD (STVHEILCKLSLEGD; annexin II variant polypeptide) [SEQ ID NO:5, N-terminal 15 amino acid annexin II fragment peptide]”, in the assay with hTLR2, the “NF-κB activity through TLR2” value is given as “activated TLR2”. Moreover, in assay [1], the “CD80 co-stimulatory molecule expression (MFI)” value is “increased CD80 and CD86 co-stimulatory molecule expression in a TLR4- and MyD88-dependent manner”; the “CD86 co-stimulatory molecule expression (MFI)” value was “increased CD80 and CD86 co-stimulatory molecule expression in a TLR4- and MyD88-dependent manner”. The “TNF secretion from BMDCs” value in assay [3] is “mediated induction of TNF secretion and that the activity is MyD88-dependent”.

Consider “STVHEILCKLSLEGDHSTPPSAYGSVKPYTNFDAEEQLESIINFEKLTEWT (STVHEILCKLSLEGDHSTPPSAYGSVKPYTNFDAEEQLESIINFEKLTEWT; annexin II-OVA fusion protein (A2OVA) polypeptide) [fusion peptide of the 35 amino acid annexin II N-terminus and OVA peptide]”, for which the “IFNγ response of OVA-specific OT-1 CD8 T cells” value in assay [4] was “induced an IFNγ response superior to that of A2 monomer (A2m)+OVA added as separate agents”. For the same sequence, in the assay with hTLR2, the “NF-κB activity through TLR2” value is given as “stimulated NF-κB through TLR2”. Also, the “adjuvant activity in gp100-specific CD8 T cell response (IFN-γ)” value in assay [5] was “exerted adjuvant activity”. Also, the “survival of tumor bearing mice” value with breast tumor is listed as “enhanced survival compared to saline or scrambled control”. In addition, the tumor size result in the assay with breast tumor (breast tumor bearing mice, FIG. 5B) is listed as “reducing tumor size in vivo”. Further, in assay [2] (non-tumor bearing BL/6 mice, Poly:ICLC and 50 μg peptide, Day 8, FIG. 4B), the “antigen specific CD8+ T cell response in vivo (CD8+SIINFEKL+ expansion)” value is given as “stimulated an antigen specific CD8^+ T cell response in vivo”.
